Assays:
[1] = molecular target: T1, Recombinant BTK^WT kinase (Homo sapiens, UniProt Q06187); assay: BTK WT binding affinity (LanthaScreen TR-FRET); conditions: Kinase Tracer 236, 5 h incubation
T1 construct: purchased Invitrogen
How it was run: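 IC50 obtained by variable-slope fit of TR-FRET signal (ex 340 nm; em 615 and 665 nm) versus inhibitor concentration. Reaction held for 5 h in LanthaScreen Kinase Buffer A with 2.5 nM His-tagged BTK^WT, 15 nM Kinase Tracer 236 and 2 nM Eu anti-His antibody.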

[2] = molecular target: T2, Recombinant BTK^C481S kinase (Homo sapiens, UniProt Q06187, C481S); assay: BTK C481S binding affinity (LanthaScreen TR-FRET); conditions: Kinase Tracer 236, 5 h incubation
T2 construct: purchased SignalChem
How it was run: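 BTK C481S tracer-displacement TR-FRET: 5 nM His-tagged kinase, 2 nM Eu anti-His antibody and 30 nM Kinase Tracer 236 incubated with titrated inhibitor for 5 h in Kinase Buffer A. Read at 340 nm excitation, 615/665 nm emission; IC50 from variable-slope log[inhibitor]–response fit.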

[3] = molecular target: T3, Recombinant EGFR (Homo sapiens, UniProt P00533); assay: EGFR binding affinity (LanthaScreen TR-FRET); conditions: Kinase Tracer 199, 5 h incubation
T3 construct: purchased Invitrogen
How it was run: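 Compounds were titrated against recombinant EGFR and binding was followed by LanthaScreen time-resolved FRET.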

[4] = test system: OCI-Ly10 human DLBCL cells; assay: OCI-Ly10 anti-proliferative activity (Resazurin); assay type: cell-based; conditions: Homo sapiens, OCI-Ly10, 72 h, OCI-Ly10 cells, 72 h compound treatment, Resazurin; read-out: Proliferation Assay OCI-Ly10-20% FBS
How it was run: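 A separate untreated plate gave the Day 0 reading, measured by Resazurin fluorescence at 590 nm after 5 h. The average Day 0 value was subtracted from each treated well, and results were expressed as percent of DMSO control. IC50 values came from a log[Inhibitor] vs response Variable Slope fit in Graphpad prism.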

T2 sequence (Q06187 whole entry C481S): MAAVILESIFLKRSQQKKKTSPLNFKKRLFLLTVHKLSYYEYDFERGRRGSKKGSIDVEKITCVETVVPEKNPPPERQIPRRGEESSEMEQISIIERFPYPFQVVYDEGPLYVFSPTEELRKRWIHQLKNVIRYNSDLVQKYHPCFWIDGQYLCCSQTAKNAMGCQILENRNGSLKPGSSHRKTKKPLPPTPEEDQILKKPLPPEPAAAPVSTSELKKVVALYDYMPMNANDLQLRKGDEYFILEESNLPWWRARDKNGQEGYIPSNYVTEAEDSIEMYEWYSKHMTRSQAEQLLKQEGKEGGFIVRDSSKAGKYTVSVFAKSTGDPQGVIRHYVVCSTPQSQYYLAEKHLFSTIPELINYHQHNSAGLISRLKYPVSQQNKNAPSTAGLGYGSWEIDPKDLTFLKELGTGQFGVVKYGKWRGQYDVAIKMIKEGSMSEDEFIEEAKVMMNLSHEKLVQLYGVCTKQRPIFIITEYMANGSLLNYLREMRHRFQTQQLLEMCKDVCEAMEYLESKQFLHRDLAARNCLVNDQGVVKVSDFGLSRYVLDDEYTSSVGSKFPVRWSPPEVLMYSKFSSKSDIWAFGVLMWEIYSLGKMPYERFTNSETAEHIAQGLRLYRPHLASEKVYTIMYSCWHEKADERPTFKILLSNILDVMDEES
T1 sequence (Q06187 whole entry): as the sequence (Q06187 whole entry C481S) above, with S481C counted along it
T3 sequence (P00533 25-1210): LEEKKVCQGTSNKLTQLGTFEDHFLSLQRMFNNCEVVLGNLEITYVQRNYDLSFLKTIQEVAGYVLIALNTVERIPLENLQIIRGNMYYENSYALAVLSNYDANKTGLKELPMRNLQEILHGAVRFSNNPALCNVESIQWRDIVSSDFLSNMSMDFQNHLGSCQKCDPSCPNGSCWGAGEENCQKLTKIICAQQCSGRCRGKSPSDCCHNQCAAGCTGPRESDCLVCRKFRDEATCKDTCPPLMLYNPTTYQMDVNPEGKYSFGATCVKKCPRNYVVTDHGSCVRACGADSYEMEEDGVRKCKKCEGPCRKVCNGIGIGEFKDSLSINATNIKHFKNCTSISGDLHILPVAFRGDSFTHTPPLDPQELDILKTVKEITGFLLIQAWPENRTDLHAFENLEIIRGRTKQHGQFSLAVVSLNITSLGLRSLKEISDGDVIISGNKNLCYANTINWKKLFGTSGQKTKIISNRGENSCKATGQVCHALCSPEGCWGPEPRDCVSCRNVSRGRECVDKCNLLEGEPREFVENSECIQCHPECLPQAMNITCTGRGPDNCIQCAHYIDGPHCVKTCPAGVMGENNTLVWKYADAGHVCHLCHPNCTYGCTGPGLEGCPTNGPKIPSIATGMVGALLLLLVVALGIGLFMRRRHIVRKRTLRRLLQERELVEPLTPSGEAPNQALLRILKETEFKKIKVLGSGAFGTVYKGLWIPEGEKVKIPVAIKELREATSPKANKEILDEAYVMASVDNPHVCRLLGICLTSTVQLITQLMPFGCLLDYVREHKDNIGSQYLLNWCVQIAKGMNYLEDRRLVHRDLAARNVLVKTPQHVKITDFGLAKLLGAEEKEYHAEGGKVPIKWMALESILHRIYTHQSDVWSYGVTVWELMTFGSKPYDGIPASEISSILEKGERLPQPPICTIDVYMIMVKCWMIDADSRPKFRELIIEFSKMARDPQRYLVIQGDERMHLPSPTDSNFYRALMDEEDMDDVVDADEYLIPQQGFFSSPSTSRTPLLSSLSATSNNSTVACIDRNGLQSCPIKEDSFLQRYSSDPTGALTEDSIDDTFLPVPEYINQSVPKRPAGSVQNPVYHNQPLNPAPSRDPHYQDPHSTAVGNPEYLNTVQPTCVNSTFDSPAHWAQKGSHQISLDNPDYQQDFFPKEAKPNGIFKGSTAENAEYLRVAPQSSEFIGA

For `COc1ccccc1C(=O)NCc1ccc(-c2nn(C3CC(C)(C)OC(C)(C)C3)c(N)c2C(N)=O)cc1` [Example 90, 5-amino-3-[4-[[(2-methoxybenzoyl)amino]methyl]phenyl]-1-(2,2,6,6-tetramethyltetrahydropyran-4-yl)pyrazole-4-carboxamide], the IC50 [1] was 10 to 100 nM, the IC50 [2] was < 10 nM and the IC50 [3] was 1000 to 10000 nM. For the same compound, the IC50 [4] was 100 to 1000 nM.

`CNc1c(C(N)=O)c(-c2ccc(CNC(=O)c3ccccc3OC)cc2)nn1C1CCOCC1` [Example 91, 3-[4-[[(2-methoxybenzoyl)amino]methyl]phenyl]-5-(methylamino)-1-tetrahydropyran-4-yl-pyrazole-4-carboxamide] was tested, and the IC50 [1] was 10 to 100 nM, the IC50 [2] was < 10 nM and the IC50 [3] was 1000 to 10000 nM. The IC50 [4] was 100 to 1000 nM.

`COc1ccc(C)cc1C(=O)NCc1ccc(-c2nn(C3CCCC3)c(N)c2C(N)=O)cc1F` [Example 92, 5-amino-1-cyclopentyl-3-[3-fluoro-4-[[(2-methoxy-5-methyl-benzoyl)amino]methyl]phenyl]pyrazole-4-carboxamide] was tested, and the IC50 [1] was < 10 nM, the IC50 [2] was < 10 nM and the IC50 [3] was > 10000 nM. For the same compound, the IC50 [4] was 10 to 100 nM.

In the case of `COc1ccccc1C(=O)NCc1ccc(-c2nn(C3CCCC3)c(N)c2C(N)=O)cc1F` [Example 93, 5-amino-1-cyclopentyl-3-[3-fluoro-4-[[(2-methoxybenzoyl)amino]methyl]phenyl]pyrazole-4-carboxamide], the IC50 [1] is reported as < 10 nM, the IC50 [2] is reported as < 10 nM and the IC50 [3] is reported as 100 to 1000 nM. It also gave an IC50 [4] of 10 to 100 nM.

`CNc1c(C(N)=O)c(-c2ccc(CNC(=O)c3ccccc3OC)cc2)nn1C1CCOC1` (stereo not drawn) [Example 97, 3-[4-[[(2-methoxybenzoyl)amino]methyl]phenyl]-5-(methylamino)-1-tetrahydrofuran-3-yl-pyrazole-4-carboxamide] was tested, and the IC50 [1] was 10 to 100 nM, the IC50 [2] was < 10 nM and the IC50 [3] was 1000 to 10000 nM. The IC50 [4] was 1000 to 10000 nM.

In the case of `COc1ccccc1C(=O)NCc1ccc(-c2nn(-c3ccc(F)c(F)c3)c(N)c2C(N)=O)cc1` [Example 98, 5-amino-1-(3,4-difluorophenyl)-3-[4-[[(2-methoxybenzoyl)amino]methyl]phenyl]pyrazole-4-carboxamide], the IC50 [1] is reported as < 10 nM, the IC50 [2] is reported as < 10 nM and the IC50 [3] is reported as 1000 to 10000 nM. For the same compound, the IC50 [4] was 100 to 1000 nM.

In the case of `COc1ccccc1C(=O)NCc1ccc(-c2nn(C3CCOCC3)c(N)c2C(N)=O)c(F)c1` [Example 99, 5-amino-3-[2-fluoro-4-[[(2-methoxybenzoyl)amino]methyl]phenyl]-1-tetrahydropyran-4-yl-pyrazole-4-carboxamide], the IC50 [1] is reported as 10 to 100 nM, the IC50 [2] is reported as < 10 nM and the IC50 [3] is reported as > 10000 nM. It also gave an IC50 [4] of 100 to 1000 nM.

In the case of `COc1ccccc1C(=O)NCc1ccc(-c2nn(C3CCOC3)c(N)c2C(N)=O)c(F)c1` (stereo not drawn) [Example 100, 5-amino-3-[2-fluoro-4-[[(2-methoxybenzoyl)amino]methyl]phenyl]-1-tetrahydrofuran-3-yl-pyrazole-4-carboxamide], the IC50 [1] is reported as 10 to 100 nM, the IC50 [2] is reported as < 10 nM and the IC50 [3] is reported as > 10000 nM. For the same compound, the IC50 [4] was 100 to 1000 nM.

`COc1ccccc1C(=O)NCc1ccc(-c2nn(C3CCCC3)c(N)c2C(N)=O)c(C)c1` [Example 101, 5-amino-1-cyclopentyl-3-[4-[[(2-methoxybenzoyl)amino]methyl]-2-methyl-phenyl]pyrazole-4-carboxamide] was tested, and the IC50 [1] was 10 to 100 nM, the IC50 [2] was < 10 nM and the IC50 [3] was > 10000 nM. The IC50 [4] was 100 to 1000 nM.

For `COc1ccccc1C(=O)NCc1ccc(-c2nn(C3CCCOC3)c(N)c2C(N)=O)c(F)c1` (stereo not drawn) [Example 102, 5-amino-3-[2-fluoro-4-[[(2-methoxybenzoyl)amino]methyl]phenyl]-1-tetrahydropyran-3-yl-pyrazole-4-carboxamide], the IC50 [1] was < 10 nM, the IC50 [2] was < 10 nM and the IC50 [3] was > 10000 nM. For the same compound, the IC50 [4] was 100 to 1000 nM.

For `COc1ccccc1C(=O)NCc1ccc(-c2nn(C3CCCC3F)c(N)c2C(N)=O)cc1` (stereo not drawn) [Example 103, 5-amino-1-(2-fluorocyclopentyl)-3-[4-[[(2-methoxybenzoyl)amino]methyl]phenyl]pyrazole-4-carboxamide], the IC50 [1] was < 10 nM, the IC50 [2] was < 10 nM and the IC50 [3] was 1000 to 10000 nM. The IC50 [4] was 10 to 100 nM.

For `COc1ccccc1C(=O)NCc1ccc(-c2nn(C3CC(C)OC(C)C3)c(N)c2C(N)=O)cc1` (stereo not drawn) [Example 104, 5-amino-1-(2,6-dimethyltetrahydropyran-4-yl)-3-[4-[[(2-methoxybenzoyl)amino]methyl]phenyl]pyrazole-4-carboxamide], the IC50 [1] was 10 to 100 nM, the IC50 [2] was < 10 nM and the IC50 [3] was 1000 to 10000 nM. For the same compound, the IC50 [4] was 100 to 1000 nM.

`COc1ccc(F)cc1C(=O)NCc1ccc(-c2nn(C3CCOC3)c(N)c2C(N)=O)c(F)c1` (stereo not drawn) [Example 105, 5-amino-3-[2-fluoro-4-[[(5-fluoro-2-methoxy-benzoyl)amino]methyl]phenyl]-1-tetrahydrofuran-3-yl-pyrazole-4-carboxamide] was tested, and the IC50 [1] was 10 to 100 nM, the IC50 [2] was < 10 nM and the IC50 [3] was 1000 to 10000 nM. The IC50 [4] was 100 to 1000 nM.

In the case of `COc1ccc(F)cc1C(=O)NCc1ccc(-c2nn(C3CCOCC3)c(N)c2C(N)=O)c(F)c1` [Example 106, 5-amino-3-[2-fluoro-4-[[(5-fluoro-2-methoxy-benzoyl)amino]methyl]phenyl]-1-tetrahydropyran-4-yl-pyrazole-4-carboxamide], the IC50 [1] is reported as < 10 nM, the IC50 [2] is reported as < 10 nM and the IC50 [3] is reported as > 10000 nM. It also gave an IC50 [4] of 100 to 1000 nM.

In the case of `COc1ccc(F)cc1C(=O)NCc1ccc(-c2nn(C3CCCOC3)c(N)c2C(N)=O)c(F)c1` (stereo not drawn) [Example 107, 5-amino-3-[2-fluoro-4-[[(5-fluoro-2-methoxy-benzoyl)amino]methyl]phenyl]-1-tetrahydropyran-3-yl-pyrazole-4-carboxamide], the IC50 [1] is reported as < 10 nM, the IC50 [2] is reported as < 10 nM and the IC50 [3] is reported as > 10000 nM. For the same compound, the IC50 [4] was 10 to 100 nM.

In the case of `COc1ccccc1C(=O)NCc1ccc(-c2nn(C3CCOCC3)c(C(F)F)c2C(N)=O)cc1` [Example 108, 5-(difluoromethyl)-3-[4-[[(2-methoxybenzoyl)amino]methyl]phenyl]-1-tetrahydropyran-4-yl-pyrazole-4-carboxamide], the IC50 [1] is reported as 10 to 100 nM, the IC50 [2] is reported as 10 to 100 nM and the IC50 [3] is reported as > 10000 nM. For the same compound, the IC50 [4] was 1000 to 10000 nM.

In the case of `COc1ccccc1C(=O)NCc1ccc(-c2nn(C3CCOC3)c(N)c2C(N)=O)cc1F` (stereo not drawn) [Example 109, 5-amino-3-[3-fluoro-4-[[(2-methoxybenzoyl)amino]methyl]phenyl]-1-tetrahydrofuran-3-yl-pyrazole-4-carboxamide], the IC50 [1] is reported as < 10 nM, the IC50 [2] is reported as < 10 nM and the IC50 [3] is reported as 1000 to 10000 nM. It also gave an IC50 [4] of 100 to 1000 nM.

Compound `CNc1c(C(N)=O)c(-c2ccc(CNC(=O)c3ccccc3OC)cc2)nn1-c1cccnc1` [Example 110, 3-[4-[[(2-methoxybenzoyl)amino]methyl]phenyl]-5-(methylamino)-1-(3-pyridyl)pyrazole-4-carboxamide] has an IC50 [1] of 10 to 100 nM, an IC50 [2] of 10 to 100 nM and an IC50 [3] of 1000 to 10000 nM. The IC50 [4] was 1000 to 10000 nM.

With `COc1ccccc1C(=O)NCc1ccc(-c2nn(C3CCOC(C(F)(F)F)C3)c(N)c2C(N)=O)cc1` (stereo not drawn) [Example 111, 5-amino-3-[4-[[(2-methoxybenzoyl)amino]methyl]phenyl]-1-[2-(trifluoromethyl)tetrahydropyran-4-yl]pyrazole-4-carboxamide] the IC50 [1] was < 10 nM, the IC50 [2] was < 10 nM and the IC50 [3] was 100 to 1000 nM. It also gave an IC50 [4] of 100 to 1000 nM.

For `COc1ccccc1C(=O)NCc1ccc(-c2nn([C@H]3CCOC3)c(C(F)F)c2C(N)=O)cc1` [Example 112, 5-(difluoromethyl)-3-[4-[[(2-methoxybenzoyl)amino]methyl]phenyl]-1-[(3S)-tetrahydrofuran-3-yl]pyrazole-4-carboxamide], the IC50 [1] was 100 to 1000 nM, the IC50 [2] was 100 to 1000 nM and the IC50 [3] was > 10000 nM. The IC50 [4] was > 10000 nM.

With `COc1ccc(F)cc1C(=O)NCc1ccc(-c2nn(C3CCCOC3)c(N)c2C(N)=O)cc1` (stereo not drawn) [Example 113, 5-amino-3-[4-[[(5-fluoro-2-methoxy-benzoyl)amino]methyl]phenyl]-1-tetrahydropyran-3-yl-pyrazole-4-carboxamide] the IC50 [1] was < 10 nM, the IC50 [2] was < 10 nM and the IC50 [3] was 1000 to 10000 nM. It also gave an IC50 [4] of 10 to 100 nM.

With `COc1ccc(F)cc1C(=O)NCc1ccc(-c2nn(C3CCOC3)c(N)c2C(N)=O)cc1` (stereo not drawn) [Example 114, 5-amino-3-[4-[[(5-fluoro-2-methoxy-benzoyl)amino]methyl]phenyl]-1-tetrahydrofuran-3-yl-pyrazole-4-carboxamide] the IC50 [1] was < 10 nM, the IC50 [2] was < 10 nM and the IC50 [3] was 1000 to 10000 nM. For the same compound, the IC50 [4] was 10 to 100 nM.

For `COc1ccc(F)cc1C(=O)NCc1ccc(-c2nn(C3CCOCC3)c(N)c2C(N)=O)cc1` [Example 115, 5-amino-3-[4-[[(5-fluoro-2-methoxy-benzoyl)amino]methyl]phenyl]-1-tetrahydropyran-4-yl-pyrazole-4-carboxamide], the IC50 [1] was < 10 nM, the IC50 [2] was < 10 nM and the IC50 [3] was 1000 to 10000 nM. The IC50 [4] was 10 to 100 nM.

With `COc1ccccc1C(=O)NCc1ccc(-c2nn(C3CCOCC3)c(N)c2C(N)=O)cc1F` [Example 116, 5-amino-3-[3-fluoro-4-[[(2-methoxybenzoyl)amino]methyl]phenyl]-1-tetrahydropyran-4-yl-pyrazole-4-carboxamide] the IC50 [1] was 10 to 100 nM, the IC50 [2] was < 10 nM and the IC50 [3] was 1000 to 10000 nM. The IC50 [4] was 100 to 1000 nM.

Source: patent US11826351B2, “Compounds useful as kinase inhibitors” (Loxo Oncology, Inc., priority 2015, dated 2023)
